Reference: patent publication US20130281544A1, “HEPATOPROTECTANT ACTIVITY OF GARCINOL” (priority 2010, published 2013)
Converted amounts (≈) assume the structure as drawn.

Key:
mice = details: mouse, in vivo, po
Description: The parameters studied and observations recorded are included in Table 1. (OECD Guidelines for Testing of Chemicals. Guideline 423, Acute Oral Toxicity—Acute Toxic Class Method, Adopted, (1996). Organization for Economic Cooperation and Development).

[1] = system: paracetamol induced liver damage in rats; assay: Serum enzymes ALT, AST, ALP in paracetamol (APAP) induced liver damage; assay type: in vivo, Male Wistar Rats; details: for ALP percent change / ALT percent change / AST percent change / ALP / ALT / AST: serum; for ALP / ALT / AST: Mean ± SE
Method: Doses of Garcinol (GC) used for the study: 1.25, 2.5, 5, 10 mg/kg p.o.
Standard drug: Silymarin (50 mg/kg) p.o.
Experimental animals orally received paracetamol (400 mg/kg body weight) for seven days. The animals from drug treated group received 400 mg/kg body weight of paracetamol dissolved in water orally along with graded doses of test drug Garcinol for seven days. The standard group animals received 50 mg/kg body weight of standard drug silymarin and 400 mg/kg body weight of paracetamol for seven days and served as standard control. [N. Kanchana and A. Mohamed Sadiq, Hepatoprotective effect of Plumbago zeylanica on paracetamol induced liver toxicity in rats, Int J Pharm Pharm Sci, Vol 3, Issue 1, 151-154 (2011)].
Blood was collected from the retro-orbital plexus of experimental animals and no anti-coagulant was added. Blood was made to stand at room temperature for 1 hour. It was then centrifuged and clear serum was separated. The serum was then stored for analysis. Reference: (Magari et al., 2004).
(ASPARTATE AMINOTRANSFERASE and ALANINE AMINOTRANSFERASE), Reference: Ritman S, Frankel S, (1957). A colorimeteric method for the determination of serum glutamic oxaloacetic and glutamic pyruvic transaminases. American Journal of Clinical Pathology; 28: 56-63.
0.2 ml of serum, collected from test and control samples, was mixed with 1.0 ml of buffer solution and incubated for 60 min at 37° C. in a water bath. After the addition of 1.0 ml of chromogen solution, the samples were kept at room temperature for 20 minutes for the reaction to proceed and 10 ml NaOH was added. The optical density was red at 546 nm after 5 min. To the blank, serum was added after the addition of chromogen solution.
(ALKALINE PHOSPHATASE), Reference: Klaus Walter and Schutt C. (1974). Acid and alkaline phosphatase in serum. In: Methods of Enzymatic Analysis. Eds. Hans Ulrich Bergmeyer, Verlag ChemieWeinheim, Academic press, Inc. New York, 2nd Edition, Vol. 2, pp. 855-64.
Alkaline phosphatase activity measurement is based on the ability of the enzyme to hydrolyze p-nitrophenol phosphate under alkaline conditions. The cleaved product p-nitrophenol is yellow in alkaline solution and is measured at 400-420 nm (Klaus and Schutt, 1974). 2.0 ml of buffered substrate was taken in the tubes ‘Test’ ‘Control’ and ‘Blank’ followed by addition of serum and distilled water (0.1 ml) in ‘Test’ and ‘Blank’ respectively and incubated in a water bath for 30 minutes at 25° C. After incubation sodium hydroxide was added (0.25 N, 2 ml) to all the tubes, which was followed by serum (0.1 ml) to the tubes marked ‘Control’. The yellow colour formed was measured spectrophotometrically against blank at 410 nm. […]

in vitro = assay type: cell-based; details: human
[2] = system: Hep G2 liver cancer cell line; assay: in vitro; assay type: cell-based

C=C(C)[C@@H](CC=C(C)C)C[C@@]12C[C@@H](CC=C(C)C)C(C)(C)[C@@](CC=C(C)C)(C(=O)C(C(=O)c3ccc(O)c(O)c3)=C1O)C2=O [Garcinol]
Aggressiveness (mice): Aggressiveness: Nil | Atexia (mice): Atexia: Nil | Blanching (mice): Blanching: Nil | Clonic convulsions (mice): Clonic convulsions: Nil | Corneal (mice): Corneal: No Effect | Cyanosis (mice): Cyanosis: Nil | Diarrhea (mice): Diarrhea: Nil | Excitation (mice): Excitation: Nil | Fearful (mice): Fearful: Nil | Fecal Output (mice): Fecal Output: Normal | General Locomotor Activity (mice): General Locomotor Activity: Normal | General Movement (mice): General Movement: Normal | Hyperemia (mice): Hyperemia: Nil | Motor Activity (mice): Motor Activity: Normal | Muscular Weakness (mice): Muscular Weakness: Nil | Passive (mice): Passive: Nil | Pilo erection (mice): Pilo erection: Nil | Pinnal (mice): Pinnal: No Effect | Respiration Depth (mice): Respiration Depth: Normal | Respiration Rate (mice): Respiration Rate: Normal | Respiration rate (mice): Respiration rate: Normal | Salivation (mice): Salivation: Normal | Tremors (mice): Tremors: Nil | Urine Output (mice): Urine Output: Normal | Average Protection ([1]; 1.25 mg/kg p.o.): 13.06% | Average Protection ([1]; 2.50 mg/kg p.o.): 21.51% | Average Protection ([1]; 5.00 mg/kg p.o.): 36.31% | Average Protection ([1]; 10.00 mg/kg p.o.): 33.22% | ALP percent change ([1]; 1.25 mg/kg p.o.): (8.21) % | ALT percent change ([1]; 1.25 mg/kg p.o.): (21.69) % | AST percent change ([1]; 1.25 mg/kg p.o.): (9.30) % | ALP ([1]; 1.25 mg/kg p.o.): 37.21 ± 3.44 μmol min/lt | ALT ([1]; 1.25 mg/kg p.o.): 862.97 ± 53.38 μmol min/lt | AST ([1]; 1.25 mg/kg p.o.): 761.61 ± 43.96 μmol min/lt | ALP percent change ([1]; 2.50 mg/kg p.o.): (15.44) % | ALT percent change ([1]; 2.50 mg/kg p.o.): (26.62) % | AST percent change ([1]; 2.50 mg/kg p.o.): (22.49) % | ALP ([1]; 2.50 mg/kg p.o.): 34.28 ± 1.98 μmol min/lt | ALT ([1]; 2.50 mg/kg p.o.): 808.64 ± 38.55 μmol min/lt | AST ([1]; 2.50 mg/kg p.o.): 650.88 ± 35.84 μmol min/lt | ALP percent change ([1]; 5.00 mg/kg p.o.): (24.17) % | ALT percent change ([1]; 5.00 mg/kg p.o.): (39.96) % | AST percent change ([1]; 5.00 mg/kg p.o.): (44.81) % | ALP ([1]; 5.00 mg/kg p.o.): 30.74 ± 2.05 μmol min/lt | ALT ([1]; 5.00 mg/kg p.o.): 661.67 ± 51.40 μmol min/lt | AST ([1]; 5.00 mg/kg p.o.): 463.41 ± 38.56 μmol min/lt | ALP percent change ([1]; 10.00 mg/kg p.o.): (17.11) % | ALT percent change ([1]; 10.00 mg/kg p.o.): (46.44) % | AST percent change ([1]; 10.00 mg/kg p.o.): (36.12) % | ALP ([1]; 10.00 mg/kg p.o.): 33.60 ± 1.93 μmol min/lt | ALT ([1]; 10.00 mg/kg p.o.): 590.22 ± 50.98 μmol min/lt | AST ([1]; 10.00 mg/kg p.o.): 536.39 ± 44.13 μmol min/lt | cytotoxicity at 0.78 μg/ml (in vitro): -3.81% | cytotoxicity at 1.56 μg/ml (in vitro): -12.1% | cytotoxicity at 3.13 μg/ml (in vitro): -14.7% | cytotoxicity at 6.25 μg/ml (in vitro): -1.94% | cytotoxicity at 12.5 μg/ml (in vitro): 35.8% | cytotoxicity at 25 μg/ml (in vitro): 60.9% | cytotoxicity at 50 μg/ml (in vitro): 83.2% | cytotoxicity at 100 μg/ml (in vitro): 83.4% | cytotoxicity at 200 μg/ml (in vitro): 79.5% | effective concentration for mammalian hepatocyte protection [2]: 0.78 to 6.25 µg/mL | IC50 ([2]; Homo sapiens, HepG2, HEP G2 cells, MTT, read-out: Hepatoprotective activity in HEP G2 cells IC50): 13.3 µg/mL (≈ 22.1 µM)
